Assay results: ChEMBL document CHEMBL1201862, “PubChem BioAssay data set” (2004)
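Method: 48-hour compound exposure of cells in 96-well plates, five concentrations, linear interpolation of endpoints. GI50 = concentration required for 50% inhibition of growth.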 Active and inactive are the calls of the source. Rule as the data show it: active = GI50 up to about 1.1 µM and inactive = higher.

Legend:
Test in all cases: inhibition of tumour cell growth, NCI panel, 48 h
786-0 = system: 786-0
A498 = system: A498
A549 = system: A549
ACHN = system: ACHN
CAKI-1 = system: CAKI-1
CCRF-CEM = system: CCRF-CEM
COLO 205 = system: COLO 205
DLD-1 = system: DLD-1
DMS-114 = system: DMS-114
DMS-273 = system: DMS-273
EKVX = system: EKVX
HCC 2998 = system: HCC 2998
HCT-116 = system: HCT-116
HCT-15 = system: HCT-15
HL-60 = system: HL-60
HOP-18 = system: HOP-18
HOP-62 = system: HOP-62
HOP-92 = system: HOP-92
HT-29 = system: HT-29
IGROV-1 = system: IGROV-1
K562 = system: K562
KM-20L2 = system: KM-20L2
KM12 = system: KM12
LOX IMVI = system: LOX IMVI
LXFL 529 = system: LXFL 529
M14 = system: M14
M19-MEL = system: M19-MEL
MOLT-4 = system: MOLT-4
Malme-3M = system: Malme-3M
NCI-H226 = system: NCI-H226
NCI-H23 = system: NCI-H23
NCI-H460 = system: NCI-H460
NCI-H522 = system: NCI-H522
OVCAR-3 = system: OVCAR-3
OVCAR-4 = system: OVCAR-4
OVCAR-5 = system: OVCAR-5
OVCAR-8 = system: OVCAR-8
RPMI-8226 = system: RPMI-8226
SF-268 = system: SF-268
SF-295 = system: SF-295
SF-539 = system: SF-539
SK-MEL-28 = system: SK-MEL-28
SK-MEL-2 = system: SK-MEL-2
SK-MEL-5 = system: SK-MEL-5
SK-OV-3 = system: SK-OV-3
SN12C = system: SN12C
SNB-19 = system: SNB-19
SNB-75 = system: SNB-75
SNB-78 = system: SNB-78
SR = system: SR
SW-620 = system: SW-620
TK-10 = system: TK-10
U-251 = system: U-251
UACC-257 = system: UACC-257
UACC-62 = system: UACC-62
XF498 = system: XF498
RXF 393 = system: RXF 393
UO-31 = system: UO-31

## CCC(=O)NCC1(c2c[nH]c3ccccc23)SCCS1
786-0
  GI50: > 100 µM (inactive)
A498
  GI50: > 100 µM (inactive)
A549
  GI50: > 100 µM (inactive)
ACHN
  GI50: 82 µM (inactive)
CAKI-1
  GI50: > 100 µM (inactive)
CCRF-CEM
  GI50: > 100 µM (inactive)
COLO 205
  GI50: > 100 µM (inactive)
DLD-1
  GI50: > 100 µM (inactive)
DMS-114
  GI50: 47.5 µM (inactive)
DMS-273
  GI50: > 100 µM (inactive)
EKVX
  GI50: > 100 µM (inactive)
HCC 2998
  GI50: > 100 µM (inactive)
HCT-116
  GI50: 48.1 µM (inactive)
HCT-15
  GI50: > 100 µM
HL-60
  GI50: > 100 µM (inactive)
HOP-18
  GI50: > 100 µM (inactive)
HOP-62
  GI50: > 100 µM (inactive)
HOP-92
  GI50: > 100 µM (inactive)
HT-29
  GI50: 53 µM (inactive)
IGROV-1
  GI50: > 100 µM (inactive)
K562
  GI50: > 100 µM (inactive)
KM-20L2
  GI50: > 100 µM (inactive)
KM12
  GI50: > 100 µM (inactive)
LOX IMVI
  GI50: > 100 µM (inactive)
LXFL 529
  GI50: > 100 µM (inactive)
M14
  GI50: > 100 µM (inactive)
M19-MEL
  GI50: > 100 µM (inactive)
MOLT-4
  GI50: 42.4 µM (inactive)
Malme-3M
  GI50: > 100 µM (inactive)
NCI-H226
  GI50: > 100 µM (inactive)
NCI-H23
  GI50: > 100 µM (inactive)
NCI-H460
  GI50: > 100 µM (inactive)
NCI-H522
  GI50: > 100 µM (inactive)
OVCAR-3
  GI50: > 100 µM (inactive)
OVCAR-4
  GI50: > 100 µM (inactive)
OVCAR-5
  GI50: > 100 µM (inactive)
OVCAR-8
  GI50: > 100 µM (inactive)
RPMI-8226
  GI50: > 100 µM (inactive)
SF-268
  GI50: > 100 µM (inactive)
SF-295
  GI50: > 100 µM (inactive)
SF-539
  GI50: > 100 µM (inactive)
SK-MEL-28
  GI50: > 100 µM (inactive)
SK-MEL-2
  GI50: > 100 µM (inactive)
SK-MEL-5
  GI50: > 100 µM (inactive)
SK-OV-3
  GI50: > 100 µM (inactive)
SN12C
  GI50: > 100 µM (inactive)
SNB-19
  GI50: > 100 µM (inactive)
SNB-75
  GI50: > 100 µM (inactive)
SNB-78
  GI50: > 100 µM (inactive)
SR
  GI50: > 100 µM (inactive)
SW-620
  GI50: > 100 µM (inactive)
TK-10
  GI50: > 100 µM (inactive)
U-251
  GI50: > 100 µM (inactive)
UACC-257
  GI50: > 100 µM (inactive)
UACC-62
  GI50: 63.4 µM (inactive)
XF498
  GI50: > 100 µM (inactive)

## O=C1OC(c2cccc(C(F)(F)F)c2)(c2cccc(C(F)(F)F)c2)c2ccc3ccccc3c21
786-0
  GI50: > 10 µM (inactive)
A498
  GI50: > 10 µM (inactive)
A549
  GI50: > 10 µM (inactive)
ACHN
  GI50: 3.64 µM (inactive)
CAKI-1
  GI50: 26.7 µM (inactive)
CCRF-CEM
  GI50: 7.85 µM (inactive)
COLO 205
  GI50: > 10 µM (inactive)
DLD-1
  GI50: > 10 µM (inactive)
DMS-114
  GI50: 6.18 µM (inactive)
DMS-273
  GI50: > 10 µM (inactive)
EKVX
  GI50: > 10 µM (inactive)
HCC 2998
  GI50: > 10 µM (inactive)
HCT-116
  GI50: 8.45 µM (inactive)
HCT-15
  GI50: 9.25 µM
HL-60
  GI50: 3.56 µM (inactive)
HOP-18
  GI50: > 10 µM (inactive)
HOP-62
  GI50: > 10 µM (inactive)
HOP-92
  GI50: 28.8 µM (inactive)
HT-29
  GI50: > 10 µM (inactive)
IGROV-1
  GI50: > 10 µM (inactive)
K562
  GI50: 8.04 µM (inactive)
KM-20L2
  GI50: 7.67 µM (inactive)
KM12
  GI50: 79.1 µM (inactive)
LOX IMVI
  GI50: > 10 µM (inactive)
LXFL 529
  GI50: 8.24 µM (inactive)
M14
  GI50: > 10 µM (inactive)
MOLT-4
  GI50: 4.66 µM (inactive)
Malme-3M
  GI50: 4.79 µM (inactive)
NCI-H226
  GI50: 85.5 µM (inactive)
NCI-H23
  GI50: 7.85 µM (inactive)
NCI-H460
  GI50: > 10 µM (inactive)
NCI-H522
  GI50: > 10 µM (inactive)
OVCAR-3
  GI50: 4.23 µM (inactive)
OVCAR-4
  GI50: > 10 µM (inactive)
OVCAR-5
  GI50: > 10 µM (inactive)
OVCAR-8
  GI50: > 10 µM (inactive)
RPMI-8226
  GI50: 4.24 µM (inactive)
RXF 393
  GI50: 5.65 µM (inactive)
SF-268
  GI50: 9.59 µM (inactive)
SF-295
  GI50: 15.2 µM (inactive)
SF-539
  GI50: > 100 µM (inactive)
SK-MEL-28
  GI50: > 10 µM (inactive)
SK-MEL-2
  GI50: > 10 µM (inactive)
SK-MEL-5
  GI50: 4.59 µM (inactive)
SK-OV-3
  GI50: > 10 µM (inactive)
SN12C
  GI50: > 10 µM (inactive)
SNB-19
  GI50: 11.2 µM (inactive)
SNB-75
  GI50: > 10 µM (inactive)
SNB-78
  GI50: > 10 µM (inactive)
SR
  GI50: > 10 µM (inactive)
SW-620
  GI50: > 10 µM (inactive)
TK-10
  GI50: > 10 µM (inactive)
U-251
  GI50: 8.39 µM (inactive)
UACC-257
  GI50: 13.1 µM (inactive)
UACC-62
  GI50: > 10 µM (inactive)
UO-31
  GI50: > 10 µM (inactive)
XF498
  GI50: > 100 µM (inactive)
